# Measurements taken from article PMC5843698, “Use of QSPR Modeling to Characterize In Vitro Binding of Drugs to a Gut-Restricted Polymer” (Pharmaceutical Research, 2018).
# Structures can show the parent of a compound that is named as a salt. Where two headings read alike, the source gives them in different places.
# Tests used:
# [1] = logP determination by titration in octanol/water
# Text: The shift of the aqueous pKas in the presence of octanol was used to determine the logP of the different species.
# [2] = pKa determination by titration in aqueous solution (UV or pH monitored)
# Experimental: Test drug pKas were determined experimentally by titration in aqueous solution. Ionization state was monitored by UV or pH. Reported values are the average of three independent determinations. […] Drug concentration was in the range 17–31 μM (UV) or ≥0.4 mM (pH).
# [3] = logD determination (liquid-liquid distribution chromatography, octanol-coated column)
# Experimental: The logD of the sample was determined at pH 7.4 by liquid-liquid distribution chromatography. Compounds were eluted from an octanol-coated column with an octanol-saturated mobile phase adjusted to pH 7.4. Compound retention time was converted to logD value by comparison to the retention time of a set of standard compounds with well-characterized logD octanol values.
# [4] = In vitro binding assay: free test drug recovered after 3 h incubation with and without patiromer in SGF, acetate buffer or SIF; settings: for SGF / SIF / AB: QSPR input data; for SGF: test matrix SGF; for SIF: test matrix SIF; for AB: test matrix acetate buffer (AB); for In Vitro Binding (% Drug Recovered) SGF (pH 3): simulated gastric fluid, final pH 3.0; for In Vitro Binding (% Drug Recovered) SIF (pH 5.9): simulated intestinal fluid, final pH 5.9; for In vitro patiromer binding category: strong, weak or non-binding
# Experimental: Patiromer binding to test compounds was assessed by comparing free test drug concentrations after incubation with and without patiromer. […] Test drug concentrations were based on the lowest clinically relevant dose of test drug in US prescribing information in a 1-L volume.
# Three test buffers were used: simulated gastric fluid without added pepsin (SGF; initial pH 1.2), acetate buffer (AB; initial pH 4.5), and simulated intestinal fluid without added pancreatin (SIF; initial pH 6.8). Tween-20 was included at 0.05% v/v as a surfactant to aid in solubilizing test drugs.
# Binding studies were performed in a 10 ml volume in 16×100 mm borosilicate tubes, and incubated for 3 h at 37°C with end-over-end rotation at ~25 rpm. After incubation, patiromer was allowed to settle for 5 min; supernatants were withdrawn and passed through a 0.45 μm filter, collected by centrifugation, and transferred to chromatography vials for analysis. Control samples containing buffer and drug, but without patiromer, were subjected to the same experimental process. For 24 of the test drugs, a reversed phase high performance liquid chromatography method was used for analysis in the three test matrices. […] During method qualification, we conducted a pretest of each drug in test media alone to assure no significant loss in recovery during the incubation or filtration steps. If there was not sufficient recovery compared to theoretical concentration, the drug could not be evaluated in that medium. The recovered drug in the presence or absence of patiromer was used to calculate percent recovery of test drug, and represents the geometric mean of 12 replicates.
# To measure binding, each compound was co-incubated with patiromer using the highest single clinical dose of polymer and the minimum clinical dose of test drug. […] Following co-incubation, patiromer and any bound drug were removed by centrifugation and the remaining unbound (recovered) drug was measured in the supernatant.
# [5] = aqueous solution, pKa (A = acid), acidic group, average of three determinations
# [6] = octanol-coated column with octanol-saturated mobile phase, pH 3
# [7] = octanol-coated column with octanol-saturated mobile phase, pH 4.5
# [8] = octanol-coated column with octanol-saturated mobile phase, pH 5.9
# [9] = acetate buffer pH 4.5, patiromer 25.2 g/L, 3 h, 37°C, geometric mean of 12 replicates
# [10] = across SGF, AB and SIF test matrices
# [11] = patiromer 25.2 g/L, 3 h, 37°C, geometric mean of 12 replicates
Compound,logP ([1]; octanol/water),"chromatographic logD [3, 6]","chromatographic logD [3, 7]","chromatographic logD [3, 8]",SGF [4],SIF [4],AB [4],"In Vitro Binding (% Drug Recovered) Acetate Buffer (pH 4.5) [4, 9]","Binding categories (level of in vitro interaction with patiromer) [4, 10]","In Vitro Binding (% Drug Recovered) SGF (pH 3) [4, 11]","In Vitro Binding (% Drug Recovered) SIF (pH 5.9) [4, 11]",other results
Oc1ncnc2[nH]ncc12 [Allopurinol],-0.3,-0.3,-0.3,-0.3,85.7,94.2,90.1,90.1%,No binding (<30% drug bound in any test matrix),85.7%,94.2%,"pKa [2, 5]: 9.18"
CC1=C(C(=O)O)N2C(=O)[C@@H](NC(=O)[C@H](N)c3ccccc3)[C@H]2SC1 [Cephalexin],–,–,–,–,88.7,104.4,95,95%,No binding (<30% drug bound in any test matrix),88.7%,104.4%,In vitro patiromer binding category [4]: non-binding
O=C([O-])[O-].[Li+].[Li+] [Lithium carbonate],–,–,–,–,–,–,–,88.8%,–,93.3%,56.9%,Binding categories (level of in vitro interaction with patiromer) [4]: Weak binder (key: No binding: <30% drug bound in any test matrix; Weak binder: 30–55% bound in one test matrix; Strong binder: >55% bound in two or three test matrices)
COC(=O)[C@H](c1ccccc1Cl)N1CCc2sccc2C1 [Clopidogrel bisulfate],4.06,2.4,3.67,4.03,66,–,–,–,Weak binder (30–55% bound in one test matrix),66%,–,"pKa ([2]; aqueous solution, pKa (B = base), basic group, average of three determinations): 4.66; In vitro patiromer binding category [4]: Weak binders"
CCOC(=O)C1=C(COCCN)NC(C)=C(C(=O)OC)C1c1ccccc1Cl (stereo not drawn) [Amlodipine besylate],3.39,1.44,1.44,1.46,–,–,–,–,–,–,–,–
O=C1NC(=O)C(c2ccccc2)(c2ccccc2)N1 [Phenytoin sodium],2.43,2.43,2.43,2.43,83.4,92.8,90.2,90.2%,No binding (<30% drug bound in any test matrix),83.4%,92.8%,"pKa [2, 5]: 8.18"
CC(=O)S[C@@H]1CC2=CC(=O)CC[C@]2(C)[C@H]2CC[C@@]3(C)[C@@H](CC[C@@]34CCC(=O)O4)[C@H]12 [Spironolactone],2.53,2.53,2.53,2.53,78.7,96.8,98.6,98.6%,No binding (<30% drug bound in any test matrix),78.7%,96.8%,–
CCCCC(=O)N(Cc1ccc(-c2ccccc2-c2nnn[nH]2)cc1)[C@H](C(=O)O)C(C)C [Valsartan],–,–,–,–,86.4,98,101.4,101.4%,No binding (<30% drug bound in any test matrix),86.4%,98%,In vitro patiromer binding category [4]: non-binding
COc1ccc(-n2nc(C(N)=O)c3c2C(=O)N(c2ccc(N4CCCCC4=O)cc2)CC3)cc1 [Apixaban],< 1.4,< 1.4,< 1.4,< 1.4,75.6,97.8,97.3,97.3%,No binding (<30% drug bound in any test matrix),75.6%,97.8%,–
CC(C)c1c(C(=O)Nc2ccccc2)c(-c2ccccc2)c(-c2ccc(F)cc2)n1CC[C@@H](O)C[C@@H](O)CC(=O)O [Atorvastatin calcium],–,–,–,–,91.2,101.1,93.3,93.3%,No binding (<30% drug bound in any test matrix),91.2%,101.1%,–
CC(=O)Oc1ccccc1C(=O)O [Aspirin],0.9,0.78,-0.14,-1.5,100.7,99.9,99.8,99.8%,No binding (<30% drug bound in any test matrix),100.7%,99.9%,–
Digoxin,–,–,–,–,–,103.4,109.3,109.3%,No binding (<30% drug bound in any test matrix),–,103.4%,–
Cc1cc2nc3c(=O)[nH]c(=O)nc-3n(C[C@H](O)[C@H](O)[C@H](O)CO)c2cc1C [Riboflavin],< -1.5,< -1.5,< -1.5,< -1.5,–,–,–,–,–,–,–,"pKa [2, 5]: 9.87"
COCCc1ccc(OCC(O)CNC(C)C)cc1 (stereo not drawn) [Metoprolol tartrate],1.91,-4.7,-3.2,-1.8,–,–,–,–,–,–,–,–
O=C(NC[C@H]1CN(c2ccc(N3CCOCC3=O)cc2)C(=O)O1)c1ccc(Cl)s1 [Rivaroxaban],1.43,1.43,1.43,1.43,71.9,95.1,92.9,92.9%,No binding (<30% drug bound in any test matrix),71.9%,95.1%,–
Cc1cnc(C(=O)NCCc2ccc(S(=O)(=O)NC(=O)NC3CCCCC3)cc2)cn1 [Glipizide],–,–,–,–,72.9,98.5,96.5,–,No binding (<30% drug bound in any test matrix),72.9%,98.5%,In Vitro Binding (% Drug Recovered) Acetate Buffer (pH 4.5) ([4]; pH 4.5): 96.5%
"CC(=O)CC(c1ccccc1)c1c(O)c2ccccc2oc1=O (racemic) [Warfarin (R/S), Warfarin]",–,–,–,–,–,–,–,–,–,–,–,logP [1]: 3.25; pKa [2]: 4.94; chromatographic logD ([3]; pH 3): 3.25; chromatographic logD ([3]; pH 4.5): 3.12; chromatographic logD ([3]; pH 5.9): 2.25
NS(=O)(=O)c1cc(C(=O)O)c(NCc2ccco2)cc1Cl [Furosemide],–,–,–,–,67.3,79.1,94.5,94.5%,Weak binder (30–55% bound in one test matrix),67.3%,79.1%,–
